The target of one assay is T1, human CD73 (Homo sapiens, UniProt P21589).
T1 construct: expressed in transfected cells
T1 sequence (P21589 27-549): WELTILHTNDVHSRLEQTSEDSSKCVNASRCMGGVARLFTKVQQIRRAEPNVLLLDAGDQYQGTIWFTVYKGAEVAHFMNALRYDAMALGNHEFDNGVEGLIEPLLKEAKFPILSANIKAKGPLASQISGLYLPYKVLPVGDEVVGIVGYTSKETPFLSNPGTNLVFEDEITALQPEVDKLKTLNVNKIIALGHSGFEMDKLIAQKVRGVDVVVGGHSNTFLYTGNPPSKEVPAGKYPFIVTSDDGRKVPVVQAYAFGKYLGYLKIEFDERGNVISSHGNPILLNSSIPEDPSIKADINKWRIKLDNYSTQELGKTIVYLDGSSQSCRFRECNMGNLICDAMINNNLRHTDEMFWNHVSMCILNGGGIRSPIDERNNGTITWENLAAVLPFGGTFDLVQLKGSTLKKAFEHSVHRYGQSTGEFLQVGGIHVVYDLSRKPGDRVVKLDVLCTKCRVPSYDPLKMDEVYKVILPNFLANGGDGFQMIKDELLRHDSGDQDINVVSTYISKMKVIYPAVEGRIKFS
Put plainly: Inhibitor activity against CD73 in cell based assay (CD73 expressing CHO-K1 cells). Conditions: CHO-K1 cells expressing human CD73, 150 μM AMP, 4 hours of incubation; read-out: CHO-K1 CELL VARIANT: CD73 IC50. Put shortly:
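Stably transfected CHO-K1 cells expressing human CD73 (1×10^4/well) incubated 4 h with compound (8-point 1:3 titration, top 10 μM final, 0.2% DMSO) and 150 μM AMP. Residual AMP in supernatant measured by CellTiter-Glo luminescence with 1 μM ATP after 30 min at room temperature; IC50 by nonlinear regression of percent inhibition vs high/low controls.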

The target in assay [1] is T2, Human CD73 (amino acid residues 27-549) (Homo sapiens, UniProt P21589).
T2 construct: Human CD73 (amino acid residues 27-549); His tag (N); made in house; host or cells: E. coli
T2 sequence (P21589 27-549): T1 sequence (P21589 27-549)
Put plainly: CD73 enzymatic assay (luciferase-based indirect assay, CellTiter-Glo). Conditions: 0.4 nM CD73, 150 μM AMP, 1 hour at room temperature. In kind it is biochemical. The method, boiled down: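 His-tagged human CD73 (27-549) from E. coli, 0.4 nM, with 150 μM AMP in 50 mM HEPES pH 7.4, 0.01% Tween 20; 1 h at room temperature. AMP remaining read by CellTiter-Glo 2.0 luminescence with 1 μM final ATP after 30 min. IC50 from nonlinear regression of % inhibition.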
On the technique in general: Cellular ATP, detected with luciferase, serves as a proxy for viable cell number.

By IC50 is commonly meant the concentration that inhibits the measured activity by half. For the compound `O=C(N[C@H]1CC[C@H](NC(=O)c2ccc(C(F)(F)F)nc2)CC1)O[C@@H]1CCN(c2cn[nH]c(=O)c2Cl)C1` [P-0318, (R)-1-(5-chloro-6-oxo-1,6-dihydropyridazin-4-yl)pyrrolidin-3-yl ((1r,4R)-4-(6-(trifluoromethyl)nicotinamido)cyclohexyl)carbamate], the IC50 (on human CD73; in assay [1]) was 0.001 to 10 µM each time.

With `CNC(=O)N[C@H]1CC[C@H](NC(=O)O[C@@H]2CCN(c3cn[nH]c(=O)c3Cl)C2)CC1` [P-0319, (R)-1-(5-chloro-6-oxo-1,6-dihydropyridazin-4-yl)pyrrolidin-3-yl ((1r,4R)-4-(3-methylureido)cyclohexyl) carbamate], the IC50 (at human CD73; in assay [1]) was 0.001 to 10 µM in each case.

Take `CC(C)NC(=O)N[C@H]1CC[C@H](NC(=O)O[C@@H]2CCN(c3cn[nH]c(=O)c3Cl)C2)CC1` [P-0320, (R)-1-(5-chloro-6-oxo-1,6-dihydropyridazin-4-yl)pyrrolidin-3-yl ((1r,4R)-4-(3-isopropylureido)cyclohexyl) carbamate]: the IC50 (at human CD73; in assay [1]) was 0.001 to 10 µM in each case.

As to `Cc1ccc(NC(=O)N[C@H]2CC[C@H](NC(=O)O[C@@H]3CCN(c4cn[nH]c(=O)c4Cl)C3)CC2)cc1` [P-0321, (R)-1-(5-chloro-6-oxo-1,6-dihydropyridazin-4-yl)pyrrolidin-3-yl ((1r,4R)-4-(3-(p-tolyl)ureido)cyclohexyl) carbamate], the IC50 (at human CD73; in assay [1]) was 0.001 to 10 µM throughout.

As to `N#Cc1ccc(NC(=O)N[C@H]2CC[C@H](NC(=O)O[C@@H]3CCN(c4cn[nH]c(=O)c4Cl)C3)CC2)cc1` [P-0322, (R)-1-(5-chloro-6-oxo-1,6-dihydropyridazin-4-yl)pyrrolidin-3-yl ((1r,4R)-4-(3-(4-cyanophenyl)ureido)cyclohexyl)carbamate], the IC50 (at human CD73; in assay [1]) was 0.001 to 10 µM in each case.

In the case of `O=C(Nc1ccc(F)cc1F)N[C@H]1CC[C@H](NC(=O)O[C@@H]2CCN(c3cn[nH]c(=O)c3Cl)C2)CC1` [P-0323, (R)-1-(5-chloro-6-oxo-1,6-dihydropyridazin-4-yl)pyrrolidin-3-yl ((1r,4R)-4-(3-(2,4-difluorophenyl)ureido)cyclohexyl)carbamate], the IC50 (at human CD73; in assay [1]) was 0.001 to 10 µM throughout.

Regarding `O=C(NCC(F)(F)F)N[C@H]1CC[C@H](NC(=O)O[C@@H]2CCN(c3cn[nH]c(=O)c3Cl)C2)CC1` [P-0324, (R)-1-(5-chloro-6-oxo-1,6-dihydropyridazin-4-yl)pyrrolidin-3-yl ((1r,4R)-4-(3-(2,2,2-trifluoroethyl)ureido)cyclohexyl)carbamate], the IC50 (on human CD73; in assay [1]) was 0.001 to 10 µM throughout.

With `COC(=O)N[C@H]1CC[C@H](NC(=O)O[C@@H]2CCN(c3cn[nH]c(=O)c3Cl)C2)CC1` [P-0325, (R)-1-(5-chloro-6-oxo-1,6-dihydropyridazin-4-yl)pyrrolidin-3-yl methyl ((1R,4r)-cyclohexane-1,4-diyl)dicarbamate], the IC50 (at human CD73; in assay [1]) was 0.001 to 10 µM throughout.

Consider `O=C(NC1CC1)N[C@H]1CC[C@@H](NC(=O)O[C@@H]2CCN(c3cn[nH]c(=O)c3Cl)C2)CC1` [P-0326, (R)-1-(5-chloro-6-oxo-1,6-dihydropyridazin-4-yl)pyrrolidin-3-yl ((1s,4S)-4-(3-cyclopropylureido)cyclohexyl) carbamate], for which the IC50 (at human CD73; in assay [1]) was 0.001 to 10 µM throughout.

As for `CC(C)(C)C(=O)N[C@H]1CC[C@@H](NC(=O)O[C@@H]2CCN(c3cn[nH]c(=O)c3Cl)C2)CC1` [P-0327, (R)-1-(5-chloro-6-oxo-1,6-dihydropyridazin-4-yl)pyrrolidin-3-yl ((1s,4S)-4-pivalamidocyclohexyl) carbamate], the IC50 (at human CD73; in assay [1]) was 0.001 to 10 µM throughout.

Turning to `O=C(NC1CCC2(CC1)CS(=O)(=O)C2)O[C@@H]1CCN(c2cn[nH]c(=O)c2Cl)C1` [P-0328, (R)-1-(5-chloro-6-oxo-1,6-dihydropyridazin-4-yl)pyrrolidin-3-yl (2,2-dioxido-2-thiaspiro[3.5]nonan-7-yl)carbamate], the IC50 (at human CD73; in assay [1]) was 0.001 to 10 µM each time.

As for `O=C(N[C@H]1CC[C@@H](NC2CCCCC2)CC1)O[C@@H]1CCN(c2cn[nH]c(=O)c2Cl)C1` [P-0329, (R)-1-(5-chloro-6-oxo-1,6-dihydropyridazin-4-yl)pyrrolidin-3-yl ((1s,4S)-4-(cyclohexylamino)cyclohexyl) carbamate], the half-maximal inhibitory concentration (IC50) (at human CD73; in assay [1]) was 0.001 to 10 µM throughout.

Take `O=C(N[C@H]1CC[C@@H](Nc2cc(F)ccn2)CC1)O[C@@H]1CCN(c2cn[nH]c(=O)c2Cl)C1` [P-0330, (R)-1-(5-chloro-6-oxo-1,6-dihydropyridazin-4-yl)pyrrolidin-3-yl ((1s,4S)-4-((4-fluoropyridin-2-yl)amino)cyclohexyl)carbamate]: the IC50 (on human CD73; in assay [1]) was 0.001 to 10 µM each time.

Take `CC(C)(O)Cn1ncc(N2CC[C@@H](OC(=O)NC3CCC(F)(F)CC3)C2)c(Cl)c1=O` [P-0331, (R)-1-(5-chloro-1-(2-hydroxy-2-methylpropyl)-6-oxo-1,6-dihydropyridazin-4-yl)pyrrolidin-3-yl (4,4-difluorocyclohexyl)carbamate]: the values for the IC50 (on human CD73; in assay [1]) were 10 to 100 µM and 0.001 to 10 µM, respectively.

With `O=C(NC1CCC(F)(F)CC1)O[C@@H]1CCN(c2cnn(CCCO)c(=O)c2Cl)C1` [P-0332, (R)-1-(5-chloro-1-(3-hydroxypropyl)-6-oxo-1,6-dihydropyridazin-4-yl)pyrrolidin-3-yl (4,4-difluorocyclohexyl)carbamate], the IC50 (on human CD73; in assay [1]) was 0.001 to 10 µM in each case.

Turning to `O=C(NC1CCN(C(=O)CO)CC1(F)F)O[C@@H]1CCN(c2cn[nH]c(=O)c2Cl)C1` (stereo partly drawn) [P-0333, (R)-1-(5-chloro-6-oxo-1,6-dihydropyridazin-4-yl)pyrrolidin-3-yl (3,3-difluoro-1-(2-hydroxyacetyl)piperidin-4-yl)carbamate], the IC50 (on human CD73; in assay [1]) was 0.001 to 10 µM in each case.

`CS(=O)(=O)N[C@H]1CC[C@H](NC(=O)O[C@@H]2CCN(c3cnn(CCO)c(=O)c3Cl)C2)CC1` [P-0334, (R)-1-(5-chloro-1-(2-hydroxyethyl)-6-oxo-1,6-dihydropyridazin-4-yl)pyrrolidin-3-yl ((1r,4R)-4-(methylsulfonamido)cyclohexyl)carbamate]: the IC50 (at human CD73; in assay [1]) was 0.001 to 10 µM each time.

Take `C[C@@H]1CCCC[C@H]1NC(=O)O[C@@H]1CCN(c2cn[nH]c(=O)c2Cl)C1` [P-0335, (R)-1-(5-chloro-6-oxo-1,6-dihydropyridazin-4-yl)pyrrolidin-3-yl ((1R,2R)-2-methylcyclohexyl)carbamate]: the IC50 (at human CD73; in assay [1]) was 0.001 to 10 µM each time.

Regarding `C[C@H]1C[C@@H](OC(=O)NC2CCC(F)(F)CC2)CN1c1cn[nH]c(=O)c1Cl` [P-0336, (3R,5S)-1-(5-chloro-6-oxo-1,6-dihydropyridazin-4-yl)-5-methylpyrrolidin-3-yl (4,4-difluorocyclohexyl)carbamate], the figures for the concentration for half-maximal inhibition (IC50) (at human CD73; in assay [1]) were 10 to 100 µM and 0.001 to 10 µM, respectively.

`C[C@@H]1C[C@@H](OC(=O)NC2CCC(F)(F)CC2)CN1c1cn[nH]c(=O)c1Cl` [P-0337, (3R,5R)-1-(5-chloro-6-oxo-1,6-dihydropyridazin-4-yl)-5-methylpyrrolidin-3-yl (4,4-difluorocyclohexyl)carbamate]: the half-inhibitory concentration (IC50) at human CD73 lay in the range of 10 to 100 µM; in assay [1] it was 0.001 to 10 µM.

With `O=C(NC1CC(CO)(CCl)C1)O[C@@H]1CCN(c2cn[nH]c(=O)c2Cl)C1` (stereo partly drawn) [P-0338, (R)-1-(5-chloro-6-oxo-1,6-dihydropyridazin-4-yl)pyrrolidin-3-yl (3-(chloromethyl)-3-(hydroxymethyl)cyclobutyl) carbamate], the IC50 (on human CD73; in assay [1]) was 0.001 to 10 µM each time.

Turning to `O=C(N[C@H]1CC[C@@H](F)CC1)O[C@@H]1CCN(c2cn[nH]c(=O)c2Cl)C1` [P-0339, (R)-1-(5-chloro-6-oxo-1,6-dihydropyridazin-4-yl)pyrrolidin-3-yl ((1s,4S)-4-fluorocyclohexyl)carbamate], the IC50 (at human CD73; in assay [1]) was 0.001 to 10 µM in each case.

In the case of `CC(=O)N1CC[C@H](NC(=O)O[C@@H]2CCN(c3cn[nH]c(=O)c3Cl)C2)C1` [P-0340, (R)-1-(5-chloro-6-oxo-1,6-dihydropyridazin-4-yl)pyrrolidin-3-yl ((S)-1-acetylpyrrolidin-3-yl)carbamate], the IC50 (at human CD73; in assay [1]) was 0.001 to 10 µM in each case.

Source of the values: patent publication US12509444B2, “Compounds and methods for CD73 modulation and indications therefor” (Plexxikon Inc., priority 2019, dated 2025).
